# Test results: article PMC9739780, “Pharmacokinetic Comparison of Eight Major Compounds of Lonicerae japonicae flos after Oral Administration in Normal Rats and Rats with Liver Injury” (Molecules, 2022)
# Legend:
# [1] = Pharmacokinetics after oral administration of LJF extract in CCl4-induced liver injury model rats; assay type: in vivo, Sprague-Dawley rats; conditions: for AUC(0-t) / AUC(0-inf) / Cmax / MRT last / MRT inf / Tmax / half-life: male, Sprague-Dawley
# Protocol: Intraperitoneal injection of CCl4 was used to induce liver injury in rats, and the successful establishment of the model was measured by detecting ALT and AST in rat plasma.
# (§1) This method has been successfully applied to study the pharmacokinetics of LJF orally in normal rats and acute liver injury rats. The pharmacokinetic parameters were analyzed using the […] model analysis on the DAS 2.0 platform. The mean plasma concentration–time curves of 3-CQA, 4-CQA, 5-CQA, 3,5-diCQA, 4,5-diCQA, PA, Secoxyloganin, and Sweroside are shown in Figure 4. Pharmacokinetic parameters included: Cmax, Tmax, area under the concentration–time curve (AUC0–t), AUC0–∞, MRT0–t, and MRT0–∞, as shown in Table 6 and Figure 4.
# (§2) […] male Sprague-Dawley rats with body weights of 250 ± 20 g were purchased from the Experimental Animal Center of Heilongjiang University of Chinese Medicine and fed in the SPF animal laboratory, under a standard room temperature of 25 ± 2 °C, relative humidity of 50 ± 15%, and a 12 h light/12 h dark cycle. The experiment followed the ethical norms of experimental animals of Heilongjiang University of Chinese Medicine (License number: SCXK (Hei) 2021-004). Twelve rats were randomly divided into normal and model groups of six rats each. After intraperitoneal injection of CCl4 (0.06 mL/kg) for 24 h, blood samples were collected into heparinized tubes via the orbital vein, centrifuged at 2000 r/min for 20 min, and the levels of AST and ALT in serum were determined by the microplate method.
# (§3) The pharmacokinetic properties and parameters of 3-CQA, 4-CQA, 5-CQA, 3,5-diCQA, 4,5-diCQA, PA, Secoxyloganin, and Sweroside in rats were studied after oral administration of the LJF extract. […] The supernatant plasma was then transferred to a 1.5 mL centrifuge tube and stored at −20 °C for later use.
# (§4) Here, 100 μL aliquots of the plasma sample were thawed and pipetted into centrifuge tubes and 10 μL of chloramphenicol solution (500 ng/mL) and daidzein solution (500 ng/mL) were added, respectively, and 780 μL of methanol was added to precipitate for 5 min. Then, the supernatant was centrifuged for 5 min at 12,000 rp/min. The supernatant was transferred to a nitrogen blowing machine and dried at 40 °C. The residue was reconstituted in 100 μL of 50% methanol, and the sample was filtered through the membrane and then injected into the UPLC-MS/MS system.
# (§5) DAS 2.0 software was used to calculate the pharmacokinetic parameters of the […] model, including Cmax, Tmax, AUC0–t, AUC0–∞, MRT0–t, MRT0–∞, and t1/2. The statistical software GraphPad Prism 5.0 was used for graph plotting and statistical analysis of drug duration curves.
# [2] = Pharmacokinetics after oral administration of LJF extract in normal rats; assay type: in vivo, Sprague-Dawley rats
# Protocol: as §1, §2, §3, §4, §5
# [3] = rat, liver injury model group (M, CCl4), oral LJF ethanol extract 15.75 g/kg, plasma, mean ± SD, n = 6, read-out: AUC0–t
# [4] = rat, liver injury model group (M, CCl4), oral LJF ethanol extract 15.75 g/kg, plasma, mean ± SD, n = 6, read-out: AUC0–∞
# [5] = rat, liver injury model group (M, CCl4), oral LJF ethanol extract 15.75 g/kg, plasma, mean ± SD, n = 6, read-out: Cmax
# [6] = rat, liver injury model group (M, CCl4), oral LJF ethanol extract 15.75 g/kg, plasma, mean ± SD, n = 6, read-out: MRT0–t
# [7] = rat, liver injury model group (M, CCl4), oral LJF ethanol extract 15.75 g/kg, plasma, mean ± SD, n = 6, read-out: MRT0–∞
# [8] = rat, liver injury model group (M, CCl4), oral LJF ethanol extract 15.75 g/kg, plasma, mean ± SD, n = 6, read-out: Tmax
# [9] = rat, liver injury model group (M, CCl4), oral LJF ethanol extract 15.75 g/kg, plasma, mean ± SD, n = 6, read-out: t1/2 (converted)
# [10] = result in words, oral LJF extract, rat plasma
# [11] = male, Sprague-Dawley, rat, normal group (N), oral LJF ethanol extract 15.75 g/kg, plasma, mean ± SD, n = 6, read-out: AUC0–t
# [12] = male, Sprague-Dawley, rat, normal group (N), oral LJF ethanol extract 15.75 g/kg, plasma, mean ± SD, n = 6, read-out: AUC0–∞
# [13] = male, Sprague-Dawley, rat, normal group (N), oral LJF ethanol extract 15.75 g/kg, plasma, mean ± SD, n = 6, read-out: Cmax
# [14] = male, Sprague-Dawley, rat, normal group (N), oral LJF ethanol extract 15.75 g/kg, plasma, mean ± SD, n = 6, read-out: MRT0–t
# [15] = male, Sprague-Dawley, rat, normal group (N), oral LJF ethanol extract 15.75 g/kg, plasma, mean ± SD, n = 6, read-out: MRT0–∞
# [16] = male, Sprague-Dawley, rat, normal group (N), oral LJF ethanol extract 15.75 g/kg, plasma, mean ± SD, n = 6, read-out: Tmax
# [17] = male, Sprague-Dawley, rat, normal group (N), oral LJF ethanol extract 15.75 g/kg, plasma, mean ± SD, n = 6, read-out: t1/2 (converted)
# [18] = male, Sprague-Dawley, rat, in vivo, po, 15.75 g/kg
SMILES,"AUC(0-t) [1, 3] [ng·h/mL]","AUC(0-inf) [1, 4] [ng·h/mL]","Cmax [1, 5] [ng/mL]","MRT last [1, 6] [h]","MRT inf [1, 7] [h]","Tmax [1, 8] [h]","half-life [1, 9] [h]","AUC0–t, model group compared with the normal group [1, 10]","AUC0–∞, model group compared with the normal group [1, 10]","Cmax, model group compared with the normal group [1, 10]","Tmax, model group compared with the normal group [1, 10]","AUC(0-t) [2, 11] [ng·h/mL]","AUC(0-inf) [2, 12] [ng·h/mL]","Cmax [2, 13] [ng/mL]","MRT last [2, 14] [h]","MRT inf [2, 15] [h]","Tmax [2, 16] [h]","half-life [2, 17] [h]","AUC(0-inf) ([1]; rat, in vivo, po, 15.75 g/kg) [ng·h/mL]","AUC(0-t) ([1]; rat, in vivo, po, 15.75 g/kg) [ng·h/mL]",further results
"O=C(/C=C/c1ccc(O)c(O)c1)O[C@@H]1[C@H](O)C[C@@](O)(C(=O)O)C[C@@H]1O (stereo in doubt) [4-CQA, 4-caffeoylquinic acid]",5970 ± 1800,6810 ± 1140,2370 ± 425,10.1 ± 1.06,29.7 ± 24.8,0.14 ± 0.043,42.2 ± 31.7,increased,increased,increased,significantly decreased,2170 ± 616,2340 ± 569,1110 ± 448,9.65 ± 1.72,14.7 ± 4.18,0.208 ± 0.0457,15.2 ± 5.24,,,
"O=C(/C=C/c1ccc(O)c(O)c1)O[C@H]1C[C@](O)(C(=O)O)C[C@@H](O)[C@H]1O [3-CQA, 3-caffeoylquinic acid]",16400,17400,6290 ± 1260,13.4 ± 1.67,23.3 ± 11.2,0.19 ± 0.043,12.2 ± 3.12,significantly increased,significantly increased,increased but there was no significant difference,,12100,13100,5110 ± 1220,13.9 ± 1.31,18.2 ± 1.94,0.208 ± 0.0457,12.9 ± 0.765,,,
"O=C(/C=C/c1ccc(O)c(O)c1)O[C@@H]1C[C@](O)(C(=O)O)C[C@@H](O)[C@H]1O [5-CQA, 5-caffeoylquinic acid]",3570 ± 686,3970 ± 712,1120 ± 316,,20.9 ± 8.54,,18.9 ± 18.4,increased,increased,increased,not significantly different,,,266 ± 102,18 ± 2.34,21.4 ± 2.86,,17.9 ± 9.97,,,"MRT0–t ([1]; liver injury model group (M, CCl4), oral LJF ethanol extract 15.75 g/kg, plasma, mean ± SD, n = 6): 11.08 ± 2.42 h; Tmax ([2]; normal group (N), oral LJF ethanol extract 15.75 g/kg, plasma, mean ± SD, n = 6): 0.24 ± 0.03405 h"
"O=C(O)c1ccc(O)c(O)c1 [PA, protocatechuic acid]",219 ± 59.1,547 ± 209,23 ± 2.97,26.6 ± 2.13,49.8 ± 28.9,0.18 ± 0.034,25.5 ± 17,,increased,,reached the peak earlier,198 ± 37,292 ± 26,22.6 ± 8.36,23.2 ± 0.86,44.1 ± 16.9,0.33 ± 0.13,24.8 ± 12.8,,,"clearance rate, model group compared with the normal group ([1]; result in words, oral LJF extract): decreased; MRT0–t, model group compared with the normal group [1, 10]: prolonged"
C=C[C@H]1[C@H](O[C@@H]2O[C@H](CO)[C@@H](O)[C@H](O)[C@H]2O)OC=C(C(=O)OC)[C@H]1CC(=O)O [Secoxyloganin],,,,,,,,,,,,,,,,,,,17100,15000,"Cmax ([1]; rat, in vivo, po, 15.75 g/kg): 4150 ± 377 ng/mL; MRT inf ([1]; rat, in vivo, po, 15.75 g/kg): 18.2 ± 2.24 h; MRT last ([1]; rat, in vivo, po, 15.75 g/kg): 8.74 ± 0.58 h; Tmax ([1]; rat, in vivo, po, 15.75 g/kg): 0.29 ± 0.102 h; half-life ([1]; rat, in vivo, po, 15.75 g/kg): 23.6 ± 3.48 h; Cmax, model group compared with the normal group ([1]; rat, in vivo, po): significantly higher; MRT0–∞, model group compared with the normal group ([1]; rat, in vivo, po): significantly higher; Tmax, model group compared with the normal group ([1]; rat, in vivo, po): significantly lower; AUC(0-inf) [2, 18]: 7610 ± 4120 ng·h/mL; AUC(0-t) [2, 18]: 6230 ± 1070 ng·h/mL; Cmax [2, 18]: 1510 ± 331 ng/mL; MRT inf [2, 18]: 12.4 ± 1.04 h; MRT last [2, 18]: 11.9 ± 1.69 h; Tmax [2, 18]: 0.46 ± 0.102 h; half-life [2, 18]: 16.1 ± 19.1 h"
C=C[C@H]1[C@H](O[C@@H]2O[C@H](CO)[C@@H](O)[C@H](O)[C@H]2O)OC=C2C(=O)OCC[C@H]21 [Sweroside],,,,,,,,,,,,,,,,,,,16700,16000,"Cmax ([1]; rat, in vivo, po, 15.75 g/kg): 2364.23 ± 440 ng/mL; MRT inf ([1]; rat, in vivo, po, 15.75 g/kg): 13.7 ± 1.33 h; MRT last ([1]; rat, in vivo, po, 15.75 g/kg): 11.3 ± 0.48 h; Tmax ([1]; rat, in vivo, po, 15.75 g/kg): 0.67 ± 0.26 h; half-life ([1]; rat, in vivo, po, 15.75 g/kg): 11.8 ± 1.51 h; AUC0–∞, model group compared with the normal group ([1]; rat, in vivo, po): significantly higher; Cmax, model group compared with the normal group ([1]; rat, in vivo, po): increased compared with that in the normal group, but there was no significant difference; AUC(0-inf) [2, 18]: 10000 ng·h/mL; AUC(0-t) [2, 18]: 9690 ± 1410 ng·h/mL; Cmax [2, 18]: 1930 ± 609 ng/mL; MRT0–t [2, 18]: 12.29 ± 1.14 h; MRT inf [2, 18]: 13.9 ± 1.86 h; Tmax [2, 18]: 0.53 ± 0.38 h; half-life [2, 18]: 9.78 ± 2.87 h"
